Assays:
[1] = cited from earlier work
[2] = Relative viability of PBMCs by FACS analysis; type: cell-based; settings: culture = 100%
Source text: (§1) The peripheral blood lymphocytes (PBLs) out of the PBMCs were selected for the FACS analysis (FIG. 5). A toxicity of the cells induced a shift from viable cells to apoptotic cells (FIG. 6, 7). If the drug or its concentration is very toxic, the cells appear addition-ally in a higher extent necrotic.
(§2) DMSO, the solvent of EA and cic, was given to the PBMCs in a ratio of 1:100, as control. The values are related to the culture-control and expressed as mean±standard error of the mean (SEM) taken from 5 separate measurements. In FIG. 5 (A) samples were measured after 24, 48 and 72 h. After 0 h, the time of execution, the relative viability was defined as 100° A) for all samples. In FIG. 5 (B) the relative viability values for the samples measured after 24, 48 and 72 h.

PBMCs = test: Relative apoptosis of PBMCs by FACS analysis; type: cell-based; settings: culture = 0%
Source text: as §1
as §2, with “FIG. 6” for “FIG. 5”, “relative apoptosis” for “relative viability”, “as 0%” for “as 100° A)”

cell line LAM-53 [3] = test: Relative viability of cell line LAM-53 by FACS analysis; type: cell-based; settings: culture = 100%; for viability at 30 µM: 30 μM EA
Source text: as §1
as §2, with “the cell line LAM-53” for “the PBMCs”, “FIG. 7” for “FIG. 5”, “as 100%” for “as 100° A)”

cell line LAM-53 [4] = test: Relative apoptosis of cell line LAM-53 by FACS analysis; type: cell-based; settings: culture = 0%
Source text: as §1
as §2, with “the cell line LAM-53” for “the PBMCs”, “FIG. 8” for “FIG. 5”, “relative apoptosis” for “relative viability”, “as 0%” for “as 100° A)”

cell line DHL-4 [5] = test: Relative viability of cell line DHL-4 by FACS analysis; type: cell-based; settings: culture = 100%; for viability at 10 µM: 10 μM cic; for viability at 30 µM: 30 μM EA
Source text: as §1
as §2, with “the cell line DHL-4” for “the PBMCs”, “FIG. 9” for “FIG. 5”, “as 100%” for “as 100° A)”

cell line DHL-4 [6] = test: Relative apoptosis of cell line DHL-4 by FACS analysis; type: cell-based; settings: culture = 0%
Source text: as §1
as §2, with “the cell line DHL-4” for “the PBMCs”, “FIG. 10” for “FIG. 5”, “relative apoptosis” for “relative viability”, “as 0%” for “as 100° A)”

cell line OPM-2 [7] = test: Relative viability of myeloma cell line OPM-2 by FACS analysis; type: cell-based; settings: Homo sapiens, culture = 100%; for viability at 10 µM: 10 μM cic; for viability at 30 µM: 30 μM EA
Source text: as §1
as §2, with “the cell line OPM-2” for “the PBMCs”, “FIG. 11” for “FIG. 5”, “as 100%” for “as 100° A)”

cell line OPM-2 [8] = test: Relative apoptosis of myeloma cell line OPM-2 by FACS analysis; type: cell-based; settings: culture = 0%
Source text: as §1
as §2, with “the cell line OPM-2” for “the PBMCs”, “FIG. 12” for “FIG. 5”, “relative apoptosis” for “relative viability”, “as 0%” for “as 100° A)”

cell line Raji [9] = test: Relative viability of cell line Raji by FACS analysis; type: cell-based; settings: Homo sapiens, culture = 100%; for viability at 10 µM: 10 μM cic; for viability at 30 µM: 30 μM EA
Source text: as §1
as §2, with “the cell line Raji” for “the PBMCs”, “FIG. 13” for “FIG. 5”, “as 100%” for “as 100° A)”

cell line Raji [10] = test: Relative apoptosis of cell line Raji by FACS analysis; type: cell-based; settings: culture = 0%
Source text: as §1
as §2, with “the cell line Raji” for “the PBMCs”, “FIG. 14” for “FIG. 5”, “relative apoptosis” for “relative viability”, “as 0%” for “as 100° A)”

[11] = per day; cited from earlier work

Cc1cc(C2CCCCC2)n(O)c(=O)c1 [Ciclopirox, 6-cyclohexyl-1-hydroxy-4-methyl-1,2-dihydropyridin-2-one]
solubility in methanol ([1]; methanol): soluble

Cc1cc(C2CCCCC2)n(O)c(=O)c1 [cic, Ciclopirox olamine]
viability at 24 h, 10 μM ([2]; 10 μM cic, 24 h): 99.3% | viability at 48 h, 10 μM ([2]; 10 μM cic, 48 h): 98.3% | viability at 72 h, 10 μM ([2]; 10 μM cic, 72 h): 94.4% | relative apoptosis (PBMCs; 10 μM cic, 24 h): 0.4% | relative apoptosis (PBMCs; 10 μM cic, 48 h): 1.4% | relative apoptosis (PBMCs; 10 μM cic, 72 h): 3.3% | relative viability (cell line LAM-53 [3]; 10 μM cic, 48 h): 52.9% | viability at 10 µM (cell line LAM-53 [3]; 24 h, 10 μM cic): 76.2% | viability at 10 µM (cell line LAM-53 [3]; 72 h, 10 μM cic): 32.4% | relative apoptosis (cell line LAM-53 [4]; 10 μM cic, 24 h): 12.2% | relative apoptosis (cell line LAM-53 [4]; 10 μM cic, 48 h): 34.4% | relative apoptosis (cell line LAM-53 [4]; 10 μM cic, 72 h): 51.2% | viability at 10 µM (cell line DHL-4 [5]; 24 h): 93% | viability at 10 µM (cell line DHL-4 [5]; 48 h): 90.3% | viability at 10 µM (cell line DHL-4 [5]; 72 h): 55.9% | relative apoptosis (cell line DHL-4 [6]; 10 μM cic, 24 h): 5.8% | relative apoptosis (cell line DHL-4 [6]; 10 μM cic, 48 h): 5.0% | relative apoptosis (cell line DHL-4 [6]; 10 μM cic, 72 h): 30.8% | viability at 10 µM (cell line OPM-2 [7]; 24 h): 93.6% | viability at 10 µM (cell line OPM-2 [7]; 48 h): 72.5% | viability at 10 µM (cell line OPM-2 [7]; 72 h): 29.4% | relative apoptosis (cell line OPM-2 [8]; 10 μM cic, 24 h): 4.0% | relative apoptosis (cell line OPM-2 [8]; 10 μM cic, 48 h): 15.3% | relative apoptosis (cell line OPM-2 [8]; 10 μM cic, 72 h): 34.8% | viability at 10 µM (cell line Raji [9]; 24 h): 83.8% | viability at 10 µM (cell line Raji [9]; 48 h): 45.6% | viability at 10 µM (cell line Raji [9]; 72 h): 21.7% | relative apoptosis (cell line Raji [10]; 10 μM cic, 24 h): 14.1% | relative apoptosis (cell line Raji [10]; 10 μM cic, 48 h): 31.0% | relative apoptosis (cell line Raji [10]; 10 μM cic, 72 h): 30.0% | maximum concentration in human systemic tolerability studies [11]: 275 µM

C=C(CC)C(=O)c1ccc(OCC(=O)O)c(Cl)c1Cl [EA, 2-[2,3-dichloro-4-(2-methylidenebutanoyl)phenoxy]acetic acid]
viability at 24 h, 30 μM ([2]; 30 μM EA, 24 h): 98.9% | viability at 48 h, 30 μM ([2]; 30 μM EA, 48 h): 94.9% | viability at 72 h, 30 μM ([2]; 30 μM EA, 72 h): 89.5% | relative apoptosis (PBMCs; 30 μM EA, 24 h): 1.3% | relative apoptosis (PBMCs; 30 μM EA, 48 h): 3.9% | relative apoptosis (PBMCs; 30 μM EA, 72 h): 7.6% | viability at 30 µM (cell line LAM-53 [3]; 24 h): 96.7% | viability at 30 µM (cell line LAM-53 [3]; 48 h): 96.2% | viability at 30 µM (cell line LAM-53 [3]; 72 h): 91% | relative apoptosis (cell line LAM-53 [4]; 30 μM EA, 24 h): 0.7% | relative apoptosis (cell line LAM-53 [4]; 30 μM EA, 48 h): 1.5% | relative apoptosis (cell line LAM-53 [4]; 30 μM EA, 72 h): 1.8% | viability at 30 µM (cell line DHL-4 [5]; 24 h): 91.7% | viability at 30 µM (cell line DHL-4 [5]; 48 h): 96% | viability at 30 µM (cell line DHL-4 [5]; 72 h): 97.6% | relative apoptosis (cell line DHL-4 [6]; 30 μM EA, 24 h): 6.7% | relative apoptosis (cell line DHL-4 [6]; 30 μM EA, 48 h): 2.0% | relative apoptosis (cell line DHL-4 [6]; 30 μM EA, 72 h): 1.2% | viability at 30 µM (cell line OPM-2 [7]; 24 h): 96.4% | viability at 30 µM (cell line OPM-2 [7]; 48 h): 84.2% | viability at 30 µM (cell line OPM-2 [7]; 72 h): 58% | relative apoptosis (cell line OPM-2 [8]; 30 μM EA, 24 h): 2.3% | relative apoptosis (cell line OPM-2 [8]; 30 μM EA, 48 h): 7.5% | relative apoptosis (cell line OPM-2 [8]; 30 μM EA, 72 h): 13.4% | viability at 30 µM (cell line Raji [9]; 24 h): 95.7% | viability at 30 µM (cell line Raji [9]; 48 h): 90.7% | viability at 30 µM (cell line Raji [9]; 72 h): 78.9% | relative apoptosis (cell line Raji [10]; 30 μM EA, 24 h): 2.4% | relative apoptosis (cell line Raji [10]; 30 μM EA, 48 h): 4.8% | relative apoptosis (cell line Raji [10]; 30 μM EA, 72 h): 9.8% | solubility in most organic solvents ([1]; e.g. alcohols, chloroform, and benzene): soluble | solubility in water ([1]; water): slightly soluble

From patent US9114117B2, “Compounds effective against cancer” (Ingo Schmidt-Wolf, priority 2009, dated 2015)
